Tests used:
[1] = Whole blood stability assay, rat whole blood; format: in vitro ADME; conditions: 37° C.
Description: • 1. Test purpose: to determine the whole blood stability of the compounds by monitoring the clearance rate of the parent compound after incubation of some of the example compounds of the invention with dog and rat whole blood. • 2. […] Test method:
Then, the stock solution of the test compound was diluted to 1 mmol/L and 0.2 mmol/L with 70% acetonitrile aqueous solution, respectively, as working solution.
The working solution was added to the whole blood. The concentration of each test compound was 5 μmol/L. 90 μL was taken and then mixed evenly with 90 μL of water. Then 600 μL of acetonitrile termination solution containing propranolol as internal standard was added. Incubated at 37° C. in a water bath and shook gently. At 30, 60, 120 and 240 minutes, 90 μL of each mixture was placed on a clean 96-well plate prefilled with 90 μL of water, mixed well, and then 600 μL of acetonitrile termination solution containing propranolol as internal standard was added and centrifuged at 5000 g for 15 min. 80 μL of the supernatant was taken and placed in a 96-well plate preloaded with 160 μL of ultrapure water, then analyzed by LC-MS/MS.

CYP 2B6 = target: T1, CYP 2B6 (Homo sapiens, UniProt P20813); assay: CYP inhibition test, human liver microsomes, CYP2B6
T1 sequence (P20813 1-491): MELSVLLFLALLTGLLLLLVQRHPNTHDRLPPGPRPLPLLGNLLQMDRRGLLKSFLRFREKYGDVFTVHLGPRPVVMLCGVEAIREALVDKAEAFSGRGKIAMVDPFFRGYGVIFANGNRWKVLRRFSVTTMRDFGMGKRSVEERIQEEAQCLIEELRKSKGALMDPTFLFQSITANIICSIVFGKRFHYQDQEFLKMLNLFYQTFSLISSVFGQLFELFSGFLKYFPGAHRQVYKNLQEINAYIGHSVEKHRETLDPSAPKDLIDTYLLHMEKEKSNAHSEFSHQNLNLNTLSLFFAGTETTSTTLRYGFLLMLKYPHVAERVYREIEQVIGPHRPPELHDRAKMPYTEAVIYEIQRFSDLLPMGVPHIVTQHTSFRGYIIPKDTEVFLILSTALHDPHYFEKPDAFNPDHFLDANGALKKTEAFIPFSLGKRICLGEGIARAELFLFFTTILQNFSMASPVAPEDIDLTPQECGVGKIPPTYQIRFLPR
Description: • 1. Test purpose: to evaluate the inhibitory ability of some of the example compounds of the present invention against CYP1A2, 2B6, 2C8, 2C9, 2C19, 2D6 and 3A4 via human liver microsomes. • 2. […] Test method:
• 1. K/Mg buffer: the components were 0.1 mol/L potassium phosphate and 5 mmol/L magnesium chloride with pH 7.4±0.1, preheated. • 2. Solution of the test compound: the test compound was dissolved in dimethyl sulfoxide to prepare a stock solution of 10 mmol/L. 8 μL of 10 mmol/L stock solution was transferred to a 96-well plate containing 12 μL of acetonitrile as the highest concentration point, at 3-fold dilution, for 8 concentrations. • 3. […] Human liver microsomal stock solution: human liver microsomes were dissolved in 0.1 mol/L K/Mg buffer to obtain 20 mg/mL stock solution. • 5. Human liver microsomal working solution: 10 μL of 20 mg/mL human liver microsomal stock solution was taken and added into 990 μL of 0.1 mol/L K/Mg buffer to prepare 0.2 mg/mL human liver microsomal solution. • 6.
600 μL of 0.2 mg/mL human liver microsomal solution and 3 μL of stepwise diluted test compound solution were added to the 96-well plate. 30 μL of the above solution was added on the 96-well plate followed by the addition of 15 μL of the corresponding substrate solution. […]

| Structure (SMILES) | half-life at 5 μmol/L [1] [min] | IC50 (CYP 2B6) [µM] |
| --- | --- | --- |
| C=CC(=O)N1CCN(c2nc(=O)n(-c3c(C)ccnc3C(C)C)c3nc(-c4c(O)cccc4F)c(F)cc23)[C@@H](C)C1 [AMG510] | 111 | > 10 |
| C=C(F)C(=O)N1CCN(c2nc(OC[C@@H]3CCCN3C)nc3c2CCN(c2cccc4cccc(Cl)c24)C3)C[C@@H]1CC#N [MRTX849] | 784 | 3.93 |

Source: patent US20250034161A1, “SPIROCYCLIC COMPOUND AS KRAS-G12C INHIBITOR” (Shanghai Euregen Biopharma Co., Ltd., priority 2020, published 2025)
